The values that follow come from the Kinase Knowledgebase extract (Sharma et al. 2016).

The assay concerns the target EGFR (Human), P00533 [T790M/L858R]. The note with it: nci-h1975.

Where “and” joins values, the source holds several entries; their conditions need not be identical. Equal entries are not always repeated.

Chain of EGFR (Human), P00533 [T790M/L858R] (P00533 whole entry T790M/L858R, looked up): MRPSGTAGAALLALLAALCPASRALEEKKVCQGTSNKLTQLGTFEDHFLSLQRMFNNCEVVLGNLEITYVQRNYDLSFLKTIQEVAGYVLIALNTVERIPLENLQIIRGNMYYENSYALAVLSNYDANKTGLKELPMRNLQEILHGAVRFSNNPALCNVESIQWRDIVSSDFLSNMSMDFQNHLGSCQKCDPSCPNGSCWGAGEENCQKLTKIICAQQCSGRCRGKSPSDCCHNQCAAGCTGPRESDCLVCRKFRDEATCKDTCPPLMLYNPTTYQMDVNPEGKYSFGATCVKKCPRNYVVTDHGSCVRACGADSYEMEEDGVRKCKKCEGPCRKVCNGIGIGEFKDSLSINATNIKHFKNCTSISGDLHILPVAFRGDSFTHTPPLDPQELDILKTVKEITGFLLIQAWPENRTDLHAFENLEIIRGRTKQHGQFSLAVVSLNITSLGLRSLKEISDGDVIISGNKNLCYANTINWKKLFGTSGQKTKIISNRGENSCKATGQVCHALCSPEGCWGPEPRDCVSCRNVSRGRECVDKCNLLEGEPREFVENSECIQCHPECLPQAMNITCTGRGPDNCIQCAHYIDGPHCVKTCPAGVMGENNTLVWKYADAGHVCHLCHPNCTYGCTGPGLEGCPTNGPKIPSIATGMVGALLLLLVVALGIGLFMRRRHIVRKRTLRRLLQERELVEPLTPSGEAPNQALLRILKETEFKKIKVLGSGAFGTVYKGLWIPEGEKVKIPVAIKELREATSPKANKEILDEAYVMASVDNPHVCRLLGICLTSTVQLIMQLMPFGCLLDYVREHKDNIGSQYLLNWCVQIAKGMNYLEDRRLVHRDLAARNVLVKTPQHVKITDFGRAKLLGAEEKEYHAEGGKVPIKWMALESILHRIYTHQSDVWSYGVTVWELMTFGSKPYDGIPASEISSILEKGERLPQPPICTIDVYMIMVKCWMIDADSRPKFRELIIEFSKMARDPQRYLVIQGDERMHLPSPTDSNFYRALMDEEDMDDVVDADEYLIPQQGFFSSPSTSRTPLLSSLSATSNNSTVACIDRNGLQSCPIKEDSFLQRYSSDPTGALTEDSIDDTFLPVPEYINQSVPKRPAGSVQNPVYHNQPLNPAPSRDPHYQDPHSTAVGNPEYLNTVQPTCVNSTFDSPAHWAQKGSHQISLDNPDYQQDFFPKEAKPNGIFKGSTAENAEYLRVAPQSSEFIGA

In turn, `CCC(C)n1nc(N2CC(N)C(F)(F)C2)c2cnc(Nc3ccnc(N4CCC(C)(O)CC4)n3)cc21` (stereo not drawn) had a concentration for a half-maximal effect (EC50) of 0.761 µM.
For `COC1CCN(c2nccc(Nc3cc4c(cn3)c(N)nn4C[C@H]3CC[C@H](N)CC3)n2)CC1` the value was above 10 µM; for `CCN1CCN(c2nn(C(C)C)c3cc(Nc4ccnc(-c5cnn(S(=O)(=O)C6CC6)c5)n4)ncc23)CC1`, 1.01 µM.
For `CC(C)n1nc(N2CCOC2=O)c2cnc(Nc3ccnc(-c4cnn(S(=O)(=O)C5CC5)c4)n3)cc21` the value was 0.206 µM; for `CC[C@H](C)n1nc(N2CC3(COC3)C2)c2cnc(Nc3ccnc(OCC(C)(C)S(C)(=O)=O)n3)cc21`, 0.785 µM; for `CC(C)n1nc(N2CCOCC2)c2cnc(Nc3ccnc(-c4cnn(S(=O)(=O)C5CC5)c4)n3)cc21`, 0.266 µM.
For `CC(n1nc(N2CC3(COC3)C2)c2cnc(Nc3ccnc(N4CCC(C)(O)CC4)n3)cc21)C(F)(F)F` (stereo not drawn) the value was 3.29 µM.
Regarding `CCC(C)n1nc(N2CCS(=N)(=O)CC2)c2cnc(Nc3ccnc(N4CCC(C)(O)CC4)n3)cc21` (stereo not drawn), the half-maximal effective concentration (EC50) was 9.98 µM.
The value for `CCC(C)n1nc(N2CC(C(C)(C)O)C2)c2cnc(Nc3ccnc(N4CCC(O)C(C)(C)C4)n3)cc21` (stereo not drawn) was 0.288 µM.
For `CC(C)n1nc(N2CC3(COC3)C2)c2cnc(Nc3ccnc(-c4cnn(CC5CC5)c4)n3)cc21` the value was 0.732 µM.
The value for `CCC(C)n1nc(N2CC[C@@H](O)C2)c2cnc(Nc3ccnc(N4CCC(C)(O)CC4)n3)cc21` (stereo partly drawn) was 0.619 µM; that for `CC(C)n1nc(N2CC(C(C)(C)C(N)=O)C2)c2cnc(Nc3ccnc(N4CCC(C)(O)CC4)n3)cc21` was above 10 µM; that for `CC(C)n1ncc2cnc(Nc3ccnc(N4CCC(O)C(C)(C)C4)n3)cc21` (stereo not drawn) was 0.11 µM.
With `CC(C)Oc1nn(C(C)C)c2cc(Nc3ccnc(-c4cnn(S(=O)(=O)C5CC5)c4)n3)ncc12`, the 50% effective concentration (EC50) worked out at 3.59 µM.
`CC(C)n1nc(N2CC(O)C(F)(F)C2)c2cnc(Nc3ccnc(N4CCC(C)(O)CC4)n3)cc21` (stereo not drawn) showed an EC50 of 1.33 µM.
In the case of `CC(C)n1nc(N2CC(C(C)(C)O)C2)c2cnc(Nc3ccnc(-c4cnn(S(=O)(=O)C5CC5)c4)n3)cc21`, the concentration giving a half-maximal response (EC50) is 0.423 µM.
For `CC(C)n1nc(N2CCOCC2)c2cnc(Nc3ccnc(NCC(C)(C)S(C)(=O)=O)n3)cc21` the value was 1.26 µM; for `CCC(C)n1nc(N2CC[C@@H](O)C2)c2cnc(Nc3ccnc(N4CC[C@H](O)[C@H](F)C4)n3)cc21` (stereo partly drawn), 0.263 µM.
The value for `CC(C)n1nc(N2CC3(C2)CS(=O)(=O)C3)c2cnc(Nc3ccnc(N4CCC(C)(O)CC4)n3)cc21` was 3.09 µM; that for `CC(C)n1nc(N2CCCC2)c2cnc(Nc3ccnc(N4CCC(O)C(C)(C)C4)n3)cc21` (stereo not drawn) was 0.499 µM.
The value for `CC(C)n1nc(N2CC(O)(CO)C2)c2cnc(Nc3ccnc(-c4cnn(S(=O)(=O)C5CC5)c4)n3)cc21` was 0.66 µM; that for `CC(C)n1nc(NCC(F)(F)F)c2cnc(Nc3ccnc(-c4cnn(S(=O)(=O)C5CC5)c4)n3)cc21` was above 10 µM.
In turn, `CC(C)n1nc(OC2CCOC2)c2cnc(Nc3ccnc(-c4cnn(S(=O)(=O)C5CC5)c4)n3)cc21` (stereo not drawn) gave a concentration giving a half-maximal response (EC50) of 0.798 µM.
The value for `CC(C)n1nc(N2CCC(O)C2)c2cnc(Nc3ccnc(-c4cnn(S(=O)(=O)C5CC5)c4)n3)cc21` (stereo not drawn) was 0.201 µM; that for `CC(C)n1nc(N2CC[C@H](O)C2=O)c2cnc(Nc3ccnc(-c4cnn(S(=O)(=O)C5CC5)c4)n3)cc21` was 0.63 µM.
The value for `CC(C)n1nc(N2CC(C#N)CC2=O)c2cnc(Nc3ccnc(N4CCC(C)(O)CC4)n3)cc21` (stereo not drawn) was 1.09 µM.
For `CC(C)n1nc(N2CC[C@@H](CO)C2)c2cnc(Nc3ccnc(-c4cnn(S(=O)(=O)C5CC5)c4)n3)cc21` the value was 0.162 µM.
With `CC(C)n1nc(N2CC(C)(O)C2)c2cnc(Nc3ccnc(-c4cnn(S(=O)(=O)C5CC5)c4)n3)cc21`, the half-maximal effective concentration (EC50) came out at 0.289 µM.
For `CC(C)n1nc(N2CC(N)CC2=O)c2cnc(Nc3ccnc(N4CCC(C)(O)CC4)n3)cc21` (stereo not drawn) the value was above 10 µM.
The value for `CCC(C)n1nc(N2CC[C@@H](O)C2)c2cnc(Nc3ccnc(N4CCC(CC#N)(OC)CC4)n3)cc21` (stereo partly drawn) was 1.47 µM.
The value for `CC[C@H](C)n1nc(N2CC(C(C)(C)O)C2)c2cnc(Nc3ccnc(N4CC[C@@H](O)[C@@H](F)C4)n3)cc21` was 0.429 µM; that for `CC(C)n1nc(N2CC(CC#N)C2)c2cnc(Nc3ccnc(-c4cnn(S(=O)(=O)C5CC5)c4)n3)cc21` was 0.183 µM.
In turn, `CC(C)n1nc(N2CC3CCC(C2)O3)c2cnc(Nc3ccnc(-c4cnn(S(=O)(=O)C5CC5)c4)n3)cc21` registered an EC50 of 1.21 µM.
For `CC(C)n1nc(N2CC(C(=O)N3CC4CCC(C3)O4)C2)c2cnc(Nc3ccnc(-c4cnn(S(=O)(=O)C5CC5)c4)n3)cc21` the value was 0.283 µM.
Molecule `CC(C)n1nc(N2CC(C(=O)N(C)C)C2)c2cnc(Nc3ccnc(-c4cnn(S(=O)(=O)C5CC5)c4)n3)cc21` displayed a half-maximal effective concentration (EC50) of 0.159 µM.
Regarding `CNC(=O)C1CN(c2nn(C(C)C)c3cc(Nc4ccnc(-c5cnn(S(=O)(=O)C6CC6)c5)n4)ncc23)C1`, the half-maximal effective concentration (EC50) worked out at 0.65 µM.
The value for `CCC(C)n1nc(N2CCN(C(=O)[C@H](C)O)CC2)c2cnc(Nc3ccnc(-c4cnn(S(=O)(=O)C5CC5)c4)n3)cc21` (stereo partly drawn) was 0.813 µM; that for `CC(C)n1nc(NC(C)(C)C#N)c2cnc(Nc3ccnc(N4CC[C@H](O)[C@H](F)C4)n3)cc21` was 8.27 µM; that for `CC(C)n1nc(N2CCS(=N)(=O)CC2)c2cnc(Nc3ccnc(-c4cnn(S(=O)(=O)C5CC5)c4)n3)cc21` was 0.949 µM.
`CC(C)NC(=O)C1CN(c2nn(C(C)C)c3cc(Nc4ccnc(-c5cnn(S(=O)(=O)C6CC6)c5)n4)ncc23)C1` showed a 50% effective concentration (EC50) of 0.825 µM.
The value for `CC(C)n1nc(N2CCCC2=O)c2cnc(Nc3ccnc(-c4cnn(S(=O)(=O)C5CC5)c4)n3)cc21` was 0.232 µM.
As for `CC(C)n1nc(N2C[C@H](O)[C@@H](F)C2)c2cnc(Nc3ccnc(-c4cnn(S(=O)(=O)C5CC5)c4)n3)cc21`, the EC50 is 0.24 µM.
The value for `CC(C)n1nc(N2CC(C)(CO)C2)c2cnc(Nc3ccnc(-c4cnn(S(=O)(=O)C5CC5)c4)n3)cc21` was 0.62 µM; that for `CC(C)n1nc(N2CCC3(CCNC3=O)C2)c2cnc(Nc3ccnc(-c4cnn(S(=O)(=O)C5CC5)c4)n3)cc21` (stereo not drawn) was 0.741 µM.
The value for `CC(C)n1nc(N2CC[C@@H](N)C2=O)c2cnc(Nc3ccnc(N4CCC(C)(O)CC4)n3)cc21` was 8.12 µM; that for `CC(C)n1nc(N2CC(C(=O)N3CC[C@@H](CO)C3)C2)c2cnc(Nc3ccnc(-c4cnn(S(=O)(=O)C5CC5)c4)n3)cc21` was 1.83 µM.
The value for `CC(C)n1nc(N2CC(N3CCOCC3)C2)c2cnc(Nc3ccnc(-c4cnn(S(=O)(=O)C5CC5)c4)n3)cc21` was 0.432 µM; that for `COCCNC(=O)C1CN(c2nn(C(C)C)c3cc(Nc4ccnc(-c5cnn(S(=O)(=O)C6CC6)c5)n4)ncc23)C1` was 1.45 µM.
The molecule `CC(n1nc(N2CC3(COC3)C2)c2cnc(Nc3ccnc(-c4cnn(S(=O)(=O)C5CC5)c4)n3)cc21)C(F)(F)F` (stereo not drawn) registered a concentration for a half-maximal effect (EC50) of 0.699 µM.
As for `CC(C)n1nc(N2CC[C@H](O)C2)c2cnc(Nc3ccnc(-c4cnn(S(=O)(=O)C5CC5)c4)n3)cc21`, the concentration for a half-maximal effect (EC50) amounted to 0.201 µM.
The value for `CC[C@@H](C)n1nc(N2CC3(COC3)C2)c2cnc(Nc3ccnc(N4CC[C@@H](O)[C@@H](F)C4)n3)cc21` was 0.149 µM; that for `CCC(C)n1nc(N2CCNC(=O)C2)c2cnc(Nc3ccnc(N4CCC(C)(O)CC4)n3)cc21` (stereo not drawn) was 1.76 µM; that for `CC[C@H](C)n1nc(N2CC3(COC3)C2)c2cnc(Nc3ccnc(N4CC[C@](C)(O)[C@H](F)C4)n3)cc21` was 0.874 µM and 0.631 µM.
The value for `CC(C)n1nc(N2CC(CO)C2)c2cnc(Nc3ccnc(-c4cnn(S(=O)(=O)C5CC5)c4)n3)cc21` was 0.271 µM; that for `CC(C)n1nc(N2CCS(=O)(=O)CC2)c2cnc(Nc3ccnc(-c4cnn(S(=O)(=O)C5CC5)c4)n3)cc21` was 2.02 µM.
For the molecule `CCC(C)n1nc(N2CC(F)(F)C2)c2cnc(Nc3ccnc(N4CCC(C)(O)CC4)n3)cc21` (stereo not drawn), the concentration for a half-maximal effect (EC50) stood at 1.6 µM.
On to `CC[C@@H](C)n1nc(N2CC3(COC3)C2)c2cnc(Nc3ccnc(OCC(C)(C)S(C)(=O)=O)n3)cc21`, for which the concentration giving a half-maximal response (EC50) amounted to 1.24 µM.
The value for `CC(C)n1nc(N2CCOCC2)c2cnc(Nc3ccnc(N4CCC(O)C(C)(C)C4)n3)cc21` (stereo not drawn) was 1.41 µM; that for `COC1CCN(c2nccc(Nc3cc4c(cn3)c(N3CCCC3)nn4C(C)C)n2)CC1` was 0.38 µM; that for `CC(C)n1nc(N2CC[S+]([O-])CC2)c2cnc(Nc3ccnc(-c4cnn(S(=O)(=O)C5CC5)c4)n3)cc21` was 0.835 µM.
Turning to `CC(C)n1nc(N[C@@H]2CCOC2)c2cnc(Nc3ccnc(-c4cnn(S(=O)(=O)C5CC5)c4)n3)cc21`, the EC50 was 0.775 µM.
In the case of `CC(C)n1nc(N2CC(O)C2)c2cnc(Nc3ccnc(-c4cnn(S(=O)(=O)C5CC5)c4)n3)cc21`, the concentration for a half-maximal effect (EC50) is 1.12 µM.
The value for `CC(C)n1nc(NCCO)c2cnc(Nc3ccnc(-c4cnn(S(=O)(=O)C5CC5)c4)n3)cc21` was 0.877 µM.
For `CC(C)n1nc(N2CC3(COC3)C2)c2cnc(Nc3ccnc(-c4cnn(S(=O)(=O)C5CC5)c4)n3)cc21` the value was 0.421 µM.
The value for `CC(C)n1nc(N2CC[C@@H](O)C2)c2cnc(Nc3ccnc(N4CCC(C)(O)CC4)n3)cc21` was 0.831 µM; that for `CC[C@@H](C)n1nc(N2CC3(COC3)C2)c2cnc(Nc3ccnc(N4CC[C@](C)(O)[C@H](F)C4)n3)cc21` was 1.16 µM and 0.851 µM; that for `CC(C)n1nc(NCC(C)(C)O)c2cnc(Nc3ccnc(-c4cnn(S(=O)(=O)C5CC5)c4)n3)cc21` was 1.2 µM.
In the case of `CCNC(=O)C1CN(c2nn(C(C)C)c3cc(Nc4ccnc(-c5cnn(S(=O)(=O)C6CC6)c5)n4)ncc23)C1`, the EC50 was determined as 0.484 µM.
For `CCC(C)n1nc(N2CC3(COC3)C2)c2cnc(Nc3ccnc(N4CCC(C)(O)CC4)n3)cc21` (stereo not drawn) the value was 0.881 µM; for `CCS(=O)(=O)n1cc(-c2nccc(Nc3cc4c(cn3)c(NC3COC3)nn4C(C)C)n2)cn1`, 0.921 µM; for `CC(C)n1nc(NC(C)(C)C)c2cnc(Nc3ccnc(-c4cnn(S(=O)(=O)C5CC5)c4)n3)cc21`, 4.62 µM.
The value for `CC(C)n1nc(N)c2cnc(Nc3ccnc(-c4cnn(S(=O)(=O)C5CC5)c4)n3)cc21` was 0.247 µM.
For `CCC(C)n1nc(N2C[C@@H](CO)NC2=O)c2cnc(Nc3ccnc(-c4cnn(S(=O)(=O)C5CC5)c4)n3)cc21` (stereo partly drawn) the value was 5.59 µM.

Usually EC50 stands for the concentration that produces a half-maximal response. High values mean lower potency in that assay, low ones higher potency in that assay.
